Columns and labels:
[1] = biological target: 140 purified human kinases (Rattus norvegicus, UniProt Q62868); assay: Kinase inhibition screen, cell-free 33P ATP assay at 10 μM; type: biochemical
Outline: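 Radiometric ^33P ATP cell-free format with purified enzymes; both complexes run at 10 μM in duplicate, results plotted on a kinome map via HGNC symbols.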

HCT116 p53+/+ = assay: TSQ cellular localisation / uptake study; type: cell-based, human; conditions: 25μM, 1 hour
Experimental: (§1) 48 h following cell seeding in Lumox chamber slides (8-well, Sarstedt), cells (ARPE-19 and HCT116 p53^+/+ were treated for 1 h at 37 °C with 25 μM of [L2Zn3]^6+ or DMSO solvent control before removal and washout three times using complete phenol-red free media. 25 μM TSQ (Enzo Life Sciences) was then added for 30 min for detection of cellular zinc before its washout (three washes) and analyses by confocal microscopy (Zeiss LSM880).

ARPE-19 = assay: TSQ cellular localisation / uptake study; type: cell-based, human; conditions: ARPE-19, 25μM, 1 hour
Experimental: as §1

Src = biological target: T1, Src (Homo sapiens, UniProt P12931); assay: In vitro phosphatase assay with recombinant kinase, immunoblotting; type: biochemical; conditions: 50 μM complex, 4 h, with ATP
T1 construct: His tag (N); host or cells: baculovirus expression system
Experimental: (§2) 800 ng of purified recombinant human AMPK (α1β2γ1) or Src kinase (MRC PPU, International Centre for Kinase Profiling, University of Dundee) was incubated with 50 μM [L2Cu3]^6+, [L2Zn3]^6+, or vehicle control in 50 mM Tris HCl pH 7.5 containing 50 μM ATP for 4 h at 37 °C. For [L2Zn3]^6+ time course and concentration titration experiments, 800 ng recombinant human AMPK was used (α1β2γ1 AMPK isoform for pT172 AMPKα1 detection or α2β1γ1 AMPK isoform for pS108 AMPKβ1 detection). For evaluation of ATP dependency and influence of AMP, 50 µM ATP was replaced with 50 µM AMP or omitted. Reactions were stopped by addition of Laemmli’s buffer (Biorad) to 1x and heating at 95 °C for 5 min before analysis by SDS PAGE and immunoblotting for detection of specific phosphorylated amino acids of AMPK and Src proteins.
(§3) Protein lysates and recombinant proteins were resolved on 15% SDS polyacrylamide gels. Proteins were electroblotted onto nitrocellulose membrane by wet transfer in 1xTris Glycine buffer (Biorad) at 35 mA overnight at room temperature. After blocking of membranes, these were incubated with primary antibody overnight at 4 °C before addition of rabbit or mouse secondary antibody (HRP-conjugated; 1:5000, Dako P0448 or P0260) for 1 h at room temperature and development of blots by enhanced chemiluminescence. Primary antibodies were: anti-Src (total) (Cell Signalling Technology #2123 1:1000), anti-phosphorylated Src (Y527) (Cell Signalling Technology #21055 1:1000), anti-phosphorylated Src (Y416) (Cell Signalling Technology #69435 1:1000), anti-AMPKα (total) (Cell Signalling Technology #2532 1:1000), anti-phosphorylated AMPKα (T172) (Cell Signalling Technology #2535 1:1000), anti-AMPKβ1 (total) (Cell Signalling Technology #4150 1:1000), anti-phosphorylated AMPKβ1 (S108) (abcam ab156890 1:500), anti-phospho-Tyr (pan) (Cell Signalling Technology #8954 1:2000), anti-p53 (Santa Cruz, DO-1 clone, 1:1000,), anti-phosphorylated LDH-A (Y10) (Cell Signalling Technology #8176 1:1000), anti-LDH-A/B (total) (abcam ab134187 1:5000), anti-β-actin (Merck MAB1501, 1:40,000). Quantification of signals was performed by densitometry using Image J software. Uncropped and unprocessed scans are provided in the Source Data file.

[2] = biological target: recombinant human AMPK (pT172 AMPKα1, pS108 AMPKβ1) (Homo sapiens, UniProt Q9Y478); assay: as above; type: biochemical; conditions: concentration titration 0-50µM
Experimental: as §2, §3

[3] = test system: recombinant human AMPK (pT172 AMPKα1, pS108 AMPKβ1); assay: as above; type: biochemical; conditions: 50µM
Experimental: as §2, §3

Chain of 140 purified human kinases (Q62868 whole entry): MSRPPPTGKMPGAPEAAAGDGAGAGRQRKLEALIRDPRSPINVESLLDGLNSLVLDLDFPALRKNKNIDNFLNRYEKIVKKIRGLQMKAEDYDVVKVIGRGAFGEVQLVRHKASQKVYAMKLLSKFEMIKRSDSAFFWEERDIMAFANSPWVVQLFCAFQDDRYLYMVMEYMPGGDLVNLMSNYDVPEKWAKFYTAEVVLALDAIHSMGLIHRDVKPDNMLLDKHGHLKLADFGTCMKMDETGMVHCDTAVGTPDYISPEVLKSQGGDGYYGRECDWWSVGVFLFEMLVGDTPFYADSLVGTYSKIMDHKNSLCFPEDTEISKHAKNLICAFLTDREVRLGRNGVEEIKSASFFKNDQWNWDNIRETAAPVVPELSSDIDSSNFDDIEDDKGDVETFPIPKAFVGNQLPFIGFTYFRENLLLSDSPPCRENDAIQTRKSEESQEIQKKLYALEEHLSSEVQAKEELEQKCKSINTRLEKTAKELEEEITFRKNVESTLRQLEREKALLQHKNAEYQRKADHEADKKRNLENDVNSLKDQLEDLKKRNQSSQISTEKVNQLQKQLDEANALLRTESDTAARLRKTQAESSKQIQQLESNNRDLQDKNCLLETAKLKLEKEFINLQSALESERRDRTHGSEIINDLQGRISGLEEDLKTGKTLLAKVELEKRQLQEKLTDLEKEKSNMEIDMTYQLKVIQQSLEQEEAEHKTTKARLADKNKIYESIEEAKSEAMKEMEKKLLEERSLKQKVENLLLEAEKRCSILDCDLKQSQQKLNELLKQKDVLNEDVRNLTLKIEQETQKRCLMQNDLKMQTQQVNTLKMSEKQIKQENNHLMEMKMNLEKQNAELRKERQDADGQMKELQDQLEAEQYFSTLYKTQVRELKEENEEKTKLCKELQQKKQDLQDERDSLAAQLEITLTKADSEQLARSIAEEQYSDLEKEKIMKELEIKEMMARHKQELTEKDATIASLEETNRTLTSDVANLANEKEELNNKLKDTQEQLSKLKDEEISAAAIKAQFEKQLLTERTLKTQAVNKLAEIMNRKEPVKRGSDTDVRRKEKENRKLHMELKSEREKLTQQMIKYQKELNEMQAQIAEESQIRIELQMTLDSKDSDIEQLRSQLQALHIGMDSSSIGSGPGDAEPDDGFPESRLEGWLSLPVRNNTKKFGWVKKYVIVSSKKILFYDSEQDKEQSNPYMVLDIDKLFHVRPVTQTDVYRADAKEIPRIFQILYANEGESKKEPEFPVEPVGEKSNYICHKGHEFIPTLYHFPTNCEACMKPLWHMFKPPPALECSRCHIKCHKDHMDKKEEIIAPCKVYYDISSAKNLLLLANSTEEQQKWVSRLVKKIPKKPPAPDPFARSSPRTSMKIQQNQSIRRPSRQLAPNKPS
T1 sequence (P12931 whole entry): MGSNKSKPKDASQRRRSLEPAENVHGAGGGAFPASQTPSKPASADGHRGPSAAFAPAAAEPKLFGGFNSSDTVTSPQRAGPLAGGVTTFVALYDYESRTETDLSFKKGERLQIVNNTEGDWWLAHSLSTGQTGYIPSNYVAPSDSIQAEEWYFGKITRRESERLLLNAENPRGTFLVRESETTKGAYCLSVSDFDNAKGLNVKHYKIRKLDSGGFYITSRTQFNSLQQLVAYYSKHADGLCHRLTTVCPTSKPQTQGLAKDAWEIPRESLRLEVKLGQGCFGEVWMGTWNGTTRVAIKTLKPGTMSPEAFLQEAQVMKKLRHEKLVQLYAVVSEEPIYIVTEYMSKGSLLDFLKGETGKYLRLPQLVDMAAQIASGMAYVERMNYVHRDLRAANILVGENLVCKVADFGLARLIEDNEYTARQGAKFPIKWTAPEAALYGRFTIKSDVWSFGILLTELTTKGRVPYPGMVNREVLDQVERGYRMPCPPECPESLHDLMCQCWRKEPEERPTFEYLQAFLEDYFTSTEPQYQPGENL
Chain of recombinant human AMPK (pT172 AMPKα1, pS108 AMPKβ1) (Homo sapiens, UniProt Q9Y478) (Q9Y478 whole entry): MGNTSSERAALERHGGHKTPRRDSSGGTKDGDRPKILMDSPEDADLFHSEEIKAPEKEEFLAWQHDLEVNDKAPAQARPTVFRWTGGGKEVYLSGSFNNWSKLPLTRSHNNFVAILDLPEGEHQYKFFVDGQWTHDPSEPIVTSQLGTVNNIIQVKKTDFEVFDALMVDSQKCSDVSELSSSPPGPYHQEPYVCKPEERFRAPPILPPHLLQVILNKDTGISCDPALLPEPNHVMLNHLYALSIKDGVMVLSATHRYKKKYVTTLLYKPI
Chain of recombinant human AMPK (pT172 AMPKα1, pS108 AMPKβ1) (Homo sapiens, UniProt Q9Y478) (P54646 whole entry partner): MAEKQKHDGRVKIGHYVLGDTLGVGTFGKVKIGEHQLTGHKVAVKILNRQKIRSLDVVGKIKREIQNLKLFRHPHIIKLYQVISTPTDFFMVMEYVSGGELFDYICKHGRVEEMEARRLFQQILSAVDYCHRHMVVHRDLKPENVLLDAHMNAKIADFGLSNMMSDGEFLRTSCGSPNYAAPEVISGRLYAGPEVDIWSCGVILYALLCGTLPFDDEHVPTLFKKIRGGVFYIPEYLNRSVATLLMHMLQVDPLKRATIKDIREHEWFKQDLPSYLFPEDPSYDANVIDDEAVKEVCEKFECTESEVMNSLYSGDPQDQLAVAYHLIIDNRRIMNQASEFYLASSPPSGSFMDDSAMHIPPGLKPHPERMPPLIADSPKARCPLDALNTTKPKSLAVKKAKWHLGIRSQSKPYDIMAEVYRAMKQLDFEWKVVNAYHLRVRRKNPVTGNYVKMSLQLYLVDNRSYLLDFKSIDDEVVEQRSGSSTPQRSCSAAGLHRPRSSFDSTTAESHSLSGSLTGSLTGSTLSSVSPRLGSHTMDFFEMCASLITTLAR
Chain of recombinant human AMPK (pT172 AMPKα1, pS108 AMPKβ1) (Homo sapiens, UniProt Q9Y478) (P54619 whole entry partner): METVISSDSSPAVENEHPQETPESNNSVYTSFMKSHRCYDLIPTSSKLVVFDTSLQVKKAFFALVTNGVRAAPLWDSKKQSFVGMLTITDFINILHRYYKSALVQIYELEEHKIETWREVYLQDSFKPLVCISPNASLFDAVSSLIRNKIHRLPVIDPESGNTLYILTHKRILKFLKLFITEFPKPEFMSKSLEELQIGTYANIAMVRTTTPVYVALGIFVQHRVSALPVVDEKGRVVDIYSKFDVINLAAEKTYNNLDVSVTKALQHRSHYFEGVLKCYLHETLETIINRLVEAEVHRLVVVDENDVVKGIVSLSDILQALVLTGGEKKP

SMILES | % activity ([1]; ROCK 2, Run 1) [%] | % activity ([1]; ROCK 2, Run 2) [%] | cellular uptake (TSQ fluorescent signal) (HCT116 p53+/+) | cellular uptake (TSQ fluorescent signal) (ARPE-19) | decrease in Y527P relative to total Src levels (Src) | increase in Y416P levels (Src) | concentration from which dephosphorylation is evident [2] [µM] | time from which decrease in phosphorylated T172 AMPKα and S108 AMPKβ1 is evident [3] [h]
[Cu+2].[Cu+2].[Cu+2].c1ccc(-c2csc(NCCN(CCNc3nc(-c4ccccn4)cs3)CCNc3nc(-c4ccccn4)cs3)n2)nc1.c1ccc(-c2csc(NCCN(CCNc3nc(-c4ccccn4)cs3)CCNc3nc(-c4ccccn4)cs3)n2)nc1 [[L2Cu3]6+] | 16.5 | 22.5 |  |  |  |  |  | 
CC(=O)[O-].CC(=O)[O-].CC(=O)[O-].CC(=O)[O-].CC(=O)[O-].CC(=O)[O-].[Zn+2].[Zn+2].[Zn+2].c1ccc(-c2csc(NCCN(CCNc3nc(-c4ccccn4)cs3)CCNc3nc(-c4ccccn4)cs3)n2)nc1.c1ccc(-c2csc(NCCN(CCNc3nc(-c4ccccn4)cs3)CCNc3nc(-c4ccccn4)cs3)n2)nc1 [[L2Zn3]6+] |  |  | increase in TSQ fluorescent signal | increase in TSQ fluorescent signal | ~ 30% | ~ 5 fold | ≥ 12.5 | ≥ 2

Source: paper PMC8222254, “Self-assembly of an anion receptor with metal-dependent kinase inhibition and potent in vitro anti-cancer properties” (Nature Communications, 2021)
